Results reported in patent US4493833A, “Syn-isomer of 3,7-disubstituted-3-cephem-4-carboxylic acid compounds” (Fujisawa Pharmaceutical Co., Ltd., priority 1976, dated 1985).
≈ marks a conversion by molar mass, not a printed value. Like-named read-outs stand apart in the source and are kept apart here.

What was measured:
[1] = system: Escherichia coli NIHJ JC-2; assay: In vitro antibacterial activity, two-fold agar-plate dilution method; type: cell-based; details: NIHJJC2, HI-agar, 37° C., 20 hours
Method: (§1) In vitro antibacterial activity was determined by the two-fold agar-plate dilution method as described below.
(§2) One loopful of an overnight culture of each test strain in Trypticase-soy broth (10^8 viable cells per ml.) was streaked on heart infusion agar (HI-agar) containing-graded concentrations of antibiotics, and the minimal inhibitory concentration (MIC) was expressed in terms of μg/ml. after incubation at 37° C. for 20 hours.

[2] = system: Klebsiella pneumoniae 417; assay: as above; type: cell-based
Method: as §1, §2

Proteus mirabilis 525 = assay: as above; type: cell-based; details: HI-agar, 37° C., 20 hours
Method: as §1, §2

[3] = system: Bacillus subtilis ATCC 6633; assay: as above; type: cell-based; details: ATCC6633, HI-agar, 37° C., 20 hours
Method: as §1, §2
as §2, with “containing graded” for “containing-graded”, “test compounds,” for “antibiotics,”

[4] = system: Pseudomonas aeruginosa NCTC-10490; assay: as above; type: cell-based; details: NCTC10490, HI-agar, 37° C., 20 hours
Method: as §1
as §2, with “containing graded” for “containing-graded”, “test compounds,” for “antibiotics,”

Escherichia coli 29 [5] = assay: MIC of strain used in the mouse infection test; type: cell-based; details: Escherichia coli, 29, 20 h
Method: as §1
as §2, with “([…])” for “(10^8 viable cells per ml.)”

Escherichia coli 29 [6] = assay: Protecting effect against experimental infections in mice; type: in vivo, Male ICR strain mice; details: s.c. one hour after challenge, one week
Method: (§3) Male ICR strain mice aged 4 weeks, each weighing 20-23 g were used in groups of 8 mice. The test bacteria were cultured overnight at 37° C. on HI-agar and then suspended in 2.5-5% mucin solution to obtain the suspension corresponding to each challenge cells. Mice were inoculated intraperitoneally with 0.5 ml of the suspension. A solution containing each test compounds was given subcutaneously to the mice in various dosage one hour after challenge. The ED50 values were calculated from the number of surviving mice for each dosage after one week of observation.

Escherichia coli 100 [7] = assay: MIC of strain used in the mouse infection test; type: cell-based
Method: as §1
as §2, with “([…])” for “(10^8 viable cells per ml.)”

Serratia marcesens 4 [8] = assay: MIC of strain used in the mouse infection test; type: cell-based; details: Serratia, 4, 20 h
Method: as §1
as §2, with “([…])” for “(10^8 viable cells per ml.)”

Escherichia coli 100 [9] = assay: Protecting effect against experimental infections in mice; type: in vivo, Male ICR strain mice; details: challenge 3.5 × 10^4 cells/mouse i.p.; s.c. one hour after challenge; one week
Method: as §3

Serratia marcesens 4 [10] = assay: as above; type: in vivo, Male ICR strain mice; details: challenge 1.0 × 10^6 cells/mouse i.p.; s.c. one hour after challenge; one week
Method: as §3

Acute toxicity in mice = type: in vivo, ICR strain mice; details: 2 g intravenously; 10 mice; one week observation
Method: The same strain mice as aforesaid protecting test against experimental infections were used in groups of 10 mice. Test compound (8) (2 g) was administered intravenously to said mice.

Proteus vulgaris 1 = assay: In vitro antibacterial activity, two-fold agar-plate dilution method; type: cell-based; details: HI-agar, 37° C., 20 hours
Method: as §1, §2

[11] = system: Proteus vulgaris IAM-1025; assay: as above; type: cell-based; details: IAM1025, HI-agar, 37° C., 20 hours
Method: as §1, §2
as §2, with “containing graded concentration” for “containing-graded concentrations”, “test compounds,” for “antibiotics,”, “μg/ml” for “μg/ml.”

[12] = Klebsiella pneumoniae 417, HI-agar, 37° C., 20 hours, read-out: MIC
[13] = challenge 6 × 10^6 cells/mouse i.p.

MIC [1] | MIC [2, 12] | MIC (Proteus mirabilis 525) | Compound | other results
0.78 µg/mL (≈ 1.89 µM) | 0.05 µg/mL (≈ 0.121 µM) | 0.1 µg/mL (≈ 0.242 µM) | CO/N=C(\C(=O)NC1C(=O)N2C(C(=O)O)=C(CO)CSC12)c1csc(N)n1 (stereo not shown) [(15)] | 
0.2 µg/mL (≈ 0.392 µM) | 0.2 µg/mL (≈ 0.392 µM) | 0.39 µg/mL (≈ 0.764 µM) | CO/N=C(\C(=O)NC1C(=O)N2C(C(=O)O)=C(CSc3nncn3C)CSC12)c1csc(N)n1 (stereo not shown) [(17)] | 
0.39 µg/mL (≈ 0.739 µM) | 0.1 µg/mL (≈ 0.19 µM) | 0.39 µg/mL (≈ 0.739 µM) | CO/N=C(\C(=O)NC1C(=O)N2C(C(=O)O)=C(CSc3nnc(C)s3)CSC12)c1csc(N)n1 (stereo not shown) [(16)] | 
0.1 µg/mL (≈ 0.195 µM) | 0.2 µg/mL (≈ 0.389 µM) | 0.1 µg/mL (≈ 0.195 µM) | CO/N=C(\C(=O)NC1C(=O)N2C(C(=O)O)=C(CSc3nncs3)CSC12)c1csc(N)n1 (stereo not shown) [(14)] | MIC (Escherichia coli 29 [5]; 10^6 viable cells/ml): ≤ 0.03 µg/mL; MIC (Escherichia coli 29 [5]; 10^8 viable cells/ml): ≤ 0.03 µg/mL; ED50 (S.C.) (Escherichia coli 29 [6]; [13]): < 0.005 mg/mouse
3.13 µg/mL (≈ 5.67 µM) | 0.05 µg/mL (≈ 0.0905 µM) | 0.025 µg/mL (≈ 0.0453 µM) | CO/N=C(\C(=O)NC1C(=O)N2C(C(=O)O)=C(COC(N)=O)CSC12)c1csc(NC(=O)C(F)(F)F)n1 (stereo not shown) [(18)] | 

More lines, now with the values behind:

Compound | MIC [1] | MIC [2, 12] | MIC (Proteus mirabilis 525) | other results
CO/N=C(/C(=O)NC1C(=O)N2C(C(=O)O)=C(CSc3nncs3)CSC12)c1csc(NC=O)n1 (stereo not shown) [(11)] | 12.5 µg/mL (≈ 23.1 µM) | 3.13 µg/mL (≈ 5.78 µM) | 3.13 µg/mL (≈ 5.78 µM) | 
C=CCO/N=C(\C(=O)NC1C(=O)N2C(C(=O)O)=C(CSc3nnnn3CC=C)CSC12)c1csc(N)n1 (stereo not shown) [Test Compound (3), 7-[2-Allyloxyimino-2-(2-aminothiazol-4-yl)acetamido]-3-(1-allyl-1H-tetrazol-5-yl)thiomethyl-3-cephem-4-carboxylic acid] |  |  |  | MIC [3]: 0.78 µg/mL (≈ 1.38 µM); MIC [4]: 6.25 µg/mL (≈ 11.1 µM)
CO/N=C(/C(=O)NC1C(=O)N2C(C(=O)O)=C(CSc3nnnn3C)CSC12)c1cccc(O)c1 (stereo not shown) [(3)] | 50 µg/mL (≈ 98.9 µM) | 6.25 µg/mL (≈ 12.4 µM) | 25 µg/mL (≈ 49.5 µM) | 
CO/N=C(\C(=O)N[C@@H]1C(=O)N2C(C(=O)O)=C(COC(N)=O)CS[C@H]12)c1ccco1 [Cefuroxime, reference compound] |  |  |  | MIC of used strain (Escherichia coli 100 [7]; 10^6 viable cells/ml): 12.5 µg/mL; MIC (Escherichia coli 100 [7]; 20 h, 10^8 viable cells/ml): 12.5 µg/mL; MIC (Serratia marcesens 4 [8]; 10^6 viable cells/ml): 50 µg/mL; MIC (Serratia marcesens 4 [8]; 10^8 viable cells/ml): 400 µg/mL; ED50 (S.C.) (Escherichia coli 100 [9]): 1.158 mg/mouse; ED50 (S.C.) (Serratia marcesens 4 [10]): 4.329 mg/mouse
CO/N=C(\C(=O)NC1C(=O)N2C(C(=O)O)=C(COC(N)=O)CSC12)c1csc(N)n1 (stereo not shown) [(13)] | 1.56 µg/mL (≈ 3.42 µM) | 0.5 µg/mL (≈ 1.1 µM) | 0.025 µg/mL (≈ 0.0548 µM) | MIC (Serratia marcesens 4 [8]; 10^6 viable cells/ml): ≤ 0.025 µg/mL; MIC (Serratia marcesens 4 [8]; 10^8 viable cells/ml): 25 µg/mL; ED50 (S.C.) (Serratia marcesens 4 [10]): < 0.156 mg/mouse
Cc1nnc(SCC2=C(C(=O)O)N3C(=O)C(NC(=O)Cn4cnnn4)C3SC2)s1 (stereo not shown) [CEZ Na, reference compound] |  |  |  | MIC (Escherichia coli 29 [5]; 10^6 viable cells/ml): 0.78 µg/mL; MIC (Escherichia coli 29 [5]; 10^8 viable cells/ml): 3.13 µg/mL; ED50 (S.C.) (Escherichia coli 29 [6]; challenge 5.5 × 10^5 cells/mouse i.p.): 0.182 mg/mouse
CO/N=C(/C(=O)NC1C(=O)N2C(C(=O)O)=C(COC(C)=O)CSC12)c1csc(N)n1 (stereo not shown) [(9)] | 3.13 µg/mL (≈ 6.87 µM) |  | 0.78 µg/mL (≈ 1.71 µM) | MIC ([2]; Klebsiella pneumoniae, 417, 20 h): 1.56 µg/mL (≈ 3.43 µM)
CO/N=C(/C(=O)NC1C(=O)N2C(C(=O)O)=C(CSc3nnnn3C)CSC12)c1csc(N)n1 (stereo not shown) [(7)] | 12.5 µg/mL (≈ 24.4 µM) | 6.25 µg/mL (≈ 12.2 µM) | 3.13 µg/mL (≈ 6.12 µM) | 
CC(=O)OCC1=C(C(=O)O)N2C(=O)C(NC(=O)Cc3cccs3)C2SC1 (stereo not shown) [CET, 7(2-Thienyl)acetamidocephalosporanic acid, reference compound] |  |  |  | MIC (Escherichia coli 29 [5]; 10^6 viable cells/ml): 3.13 µg/mL; MIC (Escherichia coli 29 [5]; 10^8 viable cells/ml): 12.5 µg/mL; ED50 (S.C.) (Escherichia coli 29 [6]; [13]): 1.402 mg/mouse
CO/N=C(\C(=O)NC1C(=O)N2C(C(=O)O)=C(COC(C)=O)CSC12)c1csc(N)n1 (stereo not shown) [(8)] | 0.1 µg/mL (≈ 0.22 µM) | 0.1 µg/mL (≈ 0.22 µM) | 0.05 µg/mL (≈ 0.11 µM) | MIC (Escherichia coli 29 [5]; 10^6 viable cells/ml): ≤ 0.03 µg/mL; MIC (Escherichia coli 29 [5]; 10^8 viable cells/ml): 0.2 µg/mL; ED50 (S.C.) (Escherichia coli 29 [6]; [13]): < 0.005 mg/mouse; Acute toxicity (survival, disorder) (Acute toxicity in mice): All mice survived without showing any disorder
CO/N=C(\C(=O)NC1C(=O)N2C(C(=O)O)=C(COC(C)=O)CSC12)c1csc(NC=O)n1 (stereo not shown) [(12)] | 1.56 µg/mL (≈ 3.23 µM) | 1.56 µg/mL (≈ 3.23 µM) | 0.78 µg/mL (≈ 1.61 µM) | MIC (Serratia marcesens 4 [8]; 10^6 viable cells/ml): 6.25 µg/mL; MIC (Serratia marcesens 4 [8]; 10^8 viable cells/ml): 200 µg/mL; ED50 (S.C.) (Serratia marcesens 4 [10]): 0.018 mg/mouse
CO/N=C(\C(=O)NC1C(=O)N2C(C(=O)O)=C(CSc3nc(C)ns3)CSC12)c1csc(N)n1 (stereo not shown) [Test Compound (3), 7-[2-Methoxyimino-2-(2-aminothiazol-4-yl)acetamido]-3-(3-methyl-1,2,4-thiadiazol-5-yl)thiomethyl-3-cephem-4-carboxylic acid] |  |  |  | MIC [3]: 1.56 µg/mL (≈ 2.96 µM)
CC(C)O/N=C(\C(=O)NC1C(=O)N2C(C(=O)O)=C(COC(N)=O)CSC12)c1csc(N)n1 (stereo not shown) [(20)] |  |  |  | MIC (Proteus vulgaris 1): 0.2 µg/mL (≈ 0.413 µM); MIC [3]: 1.56 µg/mL (≈ 3.22 µM); MIC [11]: 0.2 µg/mL (≈ 0.413 µM)
C#CCO/N=C(\C(=O)NC1C(=O)N2C(C(=O)O)=C(COC(C)=O)CSC12)c1csc(N)n1 (stereo not shown) [(19)] |  |  |  | MIC (Proteus vulgaris 1): 0.78 µg/mL (≈ 1.63 µM); MIC [3]: 3.13 µg/mL (≈ 6.53 µM); MIC [11]: 0.78 µg/mL (≈ 1.63 µM)
CO/N=C(\C(=O)NC1C(=O)N2C(C(=O)O)=C(CSc3nncs3)CSC12)c1csc(NC=O)n1 (stereo not shown) [(10)] | 0.78 µg/mL (≈ 1.44 µM) | 1.56 µg/mL (≈ 2.88 µM) | 0.39 µg/mL (≈ 0.72 µM) | 
C=CCn1nnnc1SCC1=C(C(=O)O)N2C(=O)C(NC(=O)/C(=N\OC(C)C)c3csc(N)n3)C2SC1 (stereo not shown) [(21)] |  |  |  | MIC (Proteus vulgaris 1): 0.78 µg/mL (≈ 1.38 µM); MIC [3]: 0.78 µg/mL (≈ 1.38 µM); MIC [11]: 0.78 µg/mL (≈ 1.38 µM)
